Reference: ChEMBL document CHEMBL1129993, “Synthesis and biological characterization of 1,4,5,6-tetrahydropyrimidine and 2-amino-3,4,5,6-tetrahydropyridine derivatives as selective m1 agonists” (J Med Chem, 1997)

Key:
A9 = assay: cells; conditions: Mus musculus, A9L
Description: Inhibition of Forskolin-Induced cAMP production in A9 L cells expressing m2 receptors

[1] = molecular target: T1, Muscarinic acetylcholine receptor M1 (Mus musculus, UniProt P12657); assay: biochemical
T1 sequence (P12657 whole entry): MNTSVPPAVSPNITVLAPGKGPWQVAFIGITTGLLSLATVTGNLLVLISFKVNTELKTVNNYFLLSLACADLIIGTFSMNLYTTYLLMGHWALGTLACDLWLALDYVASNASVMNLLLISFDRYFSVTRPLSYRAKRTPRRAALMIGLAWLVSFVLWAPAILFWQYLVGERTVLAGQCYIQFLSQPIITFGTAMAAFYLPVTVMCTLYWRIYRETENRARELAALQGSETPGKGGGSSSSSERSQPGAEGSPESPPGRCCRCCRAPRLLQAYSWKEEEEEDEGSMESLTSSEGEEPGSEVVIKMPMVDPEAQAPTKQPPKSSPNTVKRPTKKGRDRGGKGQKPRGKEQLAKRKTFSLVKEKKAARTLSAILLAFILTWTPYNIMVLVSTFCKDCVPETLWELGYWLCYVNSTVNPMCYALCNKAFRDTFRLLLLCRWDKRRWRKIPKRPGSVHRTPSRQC

[2] = molecular target: T1, Muscarinic acetylcholine receptor M1; assay: biochemical; remark: listed apart in the source
[3] = molecular target: T1, Muscarinic acetylcholine receptor M1
Description: Tested against Muscarinic acetylcholine receptor M1 expressed in A9 L cell line

[4] = molecular target: Muscarinic acetylcholine receptor M3 (Mus musculus, UniProt Q9ERZ3)
Description: Tested against Muscarinic acetylcholine receptor M3 expressed in A9 L cell line

[5] = molecular target: T1, Muscarinic acetylcholine receptor M1; assay: biochemical; remark: listed apart in the source
Rattus norvegicus = species on record: Rattus norvegicus; assay: Tested for agonist activity through assays of phosphoinositide (PI) metabolism in slices from rat cerebral cortex at 100 uM; format: functional

Chain of Muscarinic acetylcholine receptor M3 (Q9ERZ3 whole entry): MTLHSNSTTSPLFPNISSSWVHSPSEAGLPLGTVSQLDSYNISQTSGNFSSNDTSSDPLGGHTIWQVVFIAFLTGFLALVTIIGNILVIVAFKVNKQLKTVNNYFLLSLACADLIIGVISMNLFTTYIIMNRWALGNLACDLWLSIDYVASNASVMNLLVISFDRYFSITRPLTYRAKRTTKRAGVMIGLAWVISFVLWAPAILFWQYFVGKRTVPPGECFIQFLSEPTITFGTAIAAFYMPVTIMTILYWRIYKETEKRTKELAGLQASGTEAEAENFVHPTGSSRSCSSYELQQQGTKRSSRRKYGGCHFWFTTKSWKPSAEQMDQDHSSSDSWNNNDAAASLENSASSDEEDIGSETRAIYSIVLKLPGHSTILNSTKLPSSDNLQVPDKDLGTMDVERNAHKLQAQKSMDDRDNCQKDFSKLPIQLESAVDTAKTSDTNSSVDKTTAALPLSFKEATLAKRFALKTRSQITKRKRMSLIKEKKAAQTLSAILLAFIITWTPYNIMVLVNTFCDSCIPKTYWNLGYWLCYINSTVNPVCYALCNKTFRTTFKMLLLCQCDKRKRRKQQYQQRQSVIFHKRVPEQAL

Row | SMILES | IC50 (A9) | Ki [1] | Ki [2] | EC50 [3] | EC50 [4] | Ki [5] | Activity (Rattus norvegicus)
1 | Cc1noc(C2=CCCN(C)C2)n1 | 1200 nM | 1.05 nM | 0.589 nM | 12000 nM | 2800 nM | – | –
2 | CCCC#Cc1noc(C2CN=CNC2)n1 (configuration not stated) | – | – | 17.4 nM | – | – | 138 nM | –
3 | COCc1noc(C2CN=CNC2)n1 (configuration not stated) | – | – | – | – | 11000 nM | – | –
4 | Cc1noc(C2CN=CNC2)n1 (configuration not stated) | 110 nM | 2.5 nM | 2.31 nM | 5400 nM | 1100 nM | 21.1 nM | –
5 | CSCc1noc(C2CN=CNC2)n1 (configuration not stated) | – | – | – | 14000 nM | 5800 nM | – | –
6 | CCc1noc(C2CN=CNC2)n1 (configuration not stated) | – | – | – | 12000 nM | 10000 nM | – | –
7 | COC(=O)C1CN=C(N)NC1 (configuration not stated) | – | – | – | 160000 nM | – | – | –
8 | COC(=O)C1CN=CNC1 (configuration not stated) | 1600 nM | 26.8 nM | 23.6 nM | 200000 nM | 50000 nM | 359 nM | –
9 | CCOC(=O)C1CN=CNC1 (configuration not stated) | – | – | – | 44000 nM | 17000 nM | – | –
10 | CC#CCOC(=O)C1CN=CNC1 (configuration not stated) | – | – | 9.01 nM | 50000 nM | – | 14 nM | –
11 | C#CCOC(=O)C1CN=CNC1 (configuration not stated) | 780 nM | – | 2.88 nM | 33000 nM | 18000 nM | 41.7 nM | –
12 | C#CCCOC(=O)C1CN=CNC1 (configuration not stated) | – | – | 15.5 nM | 560000 nM | – | 30.9 nM | –
13 | C#CCOC(=O)C1CN=C(N)NC1 (configuration not stated) | – | – | – | 300000 nM | – | – | –
14 | C#C/C(C)=C/COC(=O)C1CN=CNC1 (configuration not stated) | – | – | – | 80000 nM | – | – | –
15 | COC(=O)C1CCC(N)=NC1 (configuration not stated) | – | – | – | 41000 nM | 14000 nM | – | –
16 | C#CCOC(=O)C1CCC(N)=NC1 (configuration not stated) | 440 nM | – | – | 116000 nM | 12000 nM | – | –
17 | C[N+](C)(C)CCOC(N)=O.[Cl-] [CARBACHOL] | 100 nM | – | – | – | 9900 nM | – | 470%
18 | C[N+](C)(C)CC#CCN1CCCC1=O [OXOTREMORINE METHIODIDE] | – | – | – | 700 nM | – | – | –
19 | O=C1CCCN1CC#CCN1CCCC1 [OXOTREMORINE] | – | – | – | 270 nM | – | – | –
20 | CCCCCCOc1nsnc1C1=CCCN(C)C1 [XANOMELINE] | 7000 nM | – | – | – | 11000 nM | – | –
